Four sequences from US20070128217A1 (priority 2003, published 2007) can be followed below.

Test [1] relates to antibodies in sera from SARS patients (sera 1a, 1b, 2, 6, 37, 62, London, SARS-yellow, SARS-green). In kind it is binding, human. Set-up: Binding of serum 6 to linear peptides of protein X1 of SARS-CoV Urbani / Binding of serum 37 to linear peptides of protein X1 of SARS-CoV Urbani / Binding of serum 6 to looped/cyclic peptide (PEPSCAN-ELISA) / Binding of serum 37 to looped/cyclic peptide (PEPSCAN-ELISA) / Binding of serum 37 to looped/cyclic peptides of protein X1 of SARS-CoV Urbani / Binding of serum 6 to linear peptides of protein X2 / Binding of serum 37 to linear peptides of protein X2 / Binding of serum 37 to looped/cyclic peptides of protein X2 of SARS-CoV Urbani / Binding of serum 6 to linear peptides of protein M of SARS-CoV Urbani / Binding of serum 37 to linear peptides of protein M of SARS-CoV Urbani / Binding of serum 6 to looped/cyclic peptides of protein M of SARS-CoV Urbani / Binding of serum 37 to looped/cyclic peptides of protein M of SARS-CoV Urbani / Binding of serum 6 to linear peptides of protein X3 of SARS-CoV Urbani / Binding of serum 37 to linear peptides of protein X3 of SARS-CoV Urbani / Binding of serum 37 to looped/cyclic peptides of protein X3 of SARS-CoV Urbani / Binding of serum 6 to linear peptides of protein X4 of SARS-CoV Urbani / Binding of serum 37 to linear peptides of protein X4 of SARS-CoV Urbani / Binding of serum 37 to looped/cyclic peptides of protein X4 of SARS-CoV Urbani / Binding of serum 6 to linear peptides of protein X5 of SARS-CoV Urbani / Binding of serum 37 to linear peptides of protein X5 of SARS-CoV Urbani / Binding of serum 37 to looped/cyclic peptides of protein X5 of SARS-CoV Urbani / Binding of serum 6 to linear peptides of protein N of SARS-CoV Urbani / Binding of serum 37 to linear peptides of protein N of SARS-CoV Urbani / Binding of serum 6 to linear peptide (PEPSCAN-ELISA) / Binding of serum 1a to looped/cyclic peptides of protein N of SARS-CoV Urbani / Binding of serum 1b to looped/cyclic peptides of protein N of SARS-CoV Urbani / Binding of serum 2 to looped/cyclic peptides of protein N of SARS-CoV Urbani / Binding of serum 6 to looped/cyclic peptides of protein N of SARS-CoV Urbani / Binding of serum 37 to looped/cyclic peptides of protein N of SARS-CoV Urbani / Binding of serum 62 to looped/cyclic peptides of protein N of SARS-CoV Urbani / Binding of serum London to looped/cyclic peptides of protein N of SARS-CoV Urbani / Binding of serum SARS-green to looped/cyclic peptides of protein N of SARS-CoV Urbani: unit not given here.

Test [2] concerns rabbit serum obtained by immunizing a rabbit with the SARS-CoV strain Frankfurt 1. In kind it is binding. Further details: Binding of a rabbit serum to linear peptides / Binding of a rabbit serum to looped peptides / Rabbit serum linear peptides / Rabbit serum looped peptides / Binding of a rabbit serum to linear peptides of protein N of SARS-CoV Urbani (Rabbit serum linear peptides) / Binding of a rabbit serum to looped/cyclic peptides of protein N of SARS-CoV Urbani (Rabbit serum looped peptides): unit not given here.

The test system of test [3] is control sera (pooled serum of ten healthy LUMC hospital workers; commercial negative donor pooled serum from the Dutch bloodbank). In kind it is binding, human. Further details: Binding of Control serum LUMC to linear peptides / Binding of Control serum Blood-bank to linear peptides / Binding of Control serum LUMC to looped peptides / Binding of Control Serum Blood-Bank to Looped peptides / Binding of Control serum LUMC to linear peptides of the protein M of SARS-CoV Urbani / Binding of Control serum Blood-bank to linear peptides of the protein M of SARS-CoV Urbani / Binding of Control serum LUMC to looped peptides of the protein M of SARS-CoV Urbani / Binding of Control Serum Blood-Bank to Looped peptides of the protein M of SARS-CoV Urbani: unit not given here.

Consider VSQIQLSLLKVTAFQ, for which, in test [1], the “Binding of serum 1a to linear peptides of protein X2” value amounted to 0.5, the “Binding of serum 1a to looped/cyclic peptides of protein X2 of SARS-CoV Urbani” value stood at 0.5, the “Binding of serum 1b to linear peptides of protein X2” value is recorded as 0.4 and the “Binding of serum 1b to looped/cyclic peptides of protein X2 of SARS-CoV Urbani” value is listed as 0.4. In test [1], the “Binding of serum 2 to linear peptides of protein X2” value is listed as 0.4, the “Binding of serum 2 to looped/cyclic peptides of protein X2 of SARS-CoV Urbani” value worked out at 0.4, the “Binding of serum 6 to linear peptides of protein X2” value came to 0.5 and the “Binding of serum 6 to looped/cyclic peptides of protein X2 of SARS-CoV Urbani” value is listed as 0.6. Moreover, in test [1], the “Binding of serum 37 to linear peptides of protein X2” value amounted to 0.6, the “Binding of serum 37 to looped/cyclic peptides of protein X2 of SARS-CoV Urbani” value was 0.4, the “Binding of serum 62 to linear peptides of protein X2” value is on record as 0.3 and the “Binding of serum 62 to looped/cyclic peptides of protein X2 of SARS-CoV Urbani” value is reported as 0.6. In addition, in test [1], the “Binding of serum London to linear peptides of protein X2” value is listed as 0.3, the “Binding of serum London to looped/cyclic peptides of protein X2 of SARS-CoV Urbani” value was determined as 0.8, the “Binding of serum SARS-green to linear peptides of protein X2” value is given as 0.1 and the “Binding of serum SARS-green to looped/cyclic peptides of protein X2 of SARS-CoV Urbani” value amounted to 0.3. In test [1], the “Binding of serum SARS-yellow to linear peptides of protein X2” value was 0.4 and the “Binding of serum SARS-yellow to looped/cyclic peptides of protein X2 of SARS-CoV Urbani” value was determined as 0.6. Moreover, in test [2], the “Binding of a rabbit serum to linear peptides” value turned out to be 0.6 and the “Binding of a rabbit serum to looped peptides” value was determined as 0.4. Further, in test [3], the “Binding of Control Serum Blood-Bank to Looped peptides” value is on record as 0.6, the “Binding of Control serum Blood-bank to linear peptides” value is given as 0.5, the “Binding of Control serum LUMC to linear peptides” value turned out to be 0.8 and the “Binding of Control serum LUMC to looped peptides” value was found to be 0.6.
VTAFQHQNSKKTTKL: in test [1], the “Binding of serum 1a to linear peptides of protein X2” value is on record as 0.4, the “Binding of serum 1a to looped/cyclic peptides of protein X2 of SARS-CoV Urbani” value is given as 0.4, the “Binding of serum 1b to linear peptides of protein X2” value stood at 0.4 and the “Binding of serum 1b to looped/cyclic peptides of protein X2 of SARS-CoV Urbani” value is listed as 0.3. In addition, in test [1], the “Binding of serum 2 to linear peptides of protein X2” value came out at 0.2, the “Binding of serum 2 to looped/cyclic peptides of protein X2 of SARS-CoV Urbani” value is 0.1, the “Binding of serum 6 to linear peptides of protein X2” value is on record as 0.3 and the “Binding of serum 6 to looped/cyclic peptides of protein X2 of SARS-CoV Urbani” value is 0.3. In test [1], the “Binding of serum 37 to linear peptides of protein X2” value is on record as 0.5, the “Binding of serum 37 to looped/cyclic peptides of protein X2 of SARS-CoV Urbani” value amounted to 0.3, the “Binding of serum 62 to linear peptides of protein X2” value came to 0.3 and the “Binding of serum 62 to looped/cyclic peptides of protein X2 of SARS-CoV Urbani” value was 0.5. In test [1], the “Binding of serum London to linear peptides of protein X2” value stood at 0.1, the “Binding of serum London to looped/cyclic peptides of protein X2 of SARS-CoV Urbani” value is listed as 0.2, the “Binding of serum SARS-green to linear peptides of protein X2” value was determined as 0.1 and the “Binding of serum SARS-green to looped/cyclic peptides of protein X2 of SARS-CoV Urbani” value is reported as 0.2. For the same sequence, in test [1], the “Binding of serum SARS-yellow to linear peptides of protein X2” value was found to be 0.7 and the “Binding of serum SARS-yellow to looped/cyclic peptides of protein X2 of SARS-CoV Urbani” value worked out at 0.5. Moreover, in test [2], the “Binding of a rabbit serum to linear peptides” value was 0.6 and the “Binding of a rabbit serum to looped peptides” value is on record as 0.4. Further, in test [3], the “Binding of Control Serum Blood-Bank to Looped peptides” value came out at 0.5, the “Binding of Control serum Blood-bank to linear peptides” value stood at 0.3, the “Binding of Control serum LUMC to linear peptides” value is 0.5 and the “Binding of Control serum LUMC to looped peptides” value is given as 0.5.
Consider VTLACFVLAAVYRIN, for which, in test [1], the “Binding of serum 1a to linear peptides of protein M of SARS-CoV Urbani” value came to 0.7, the “Binding of serum 1a to looped/cyclic peptides of protein M of SARS-CoV Urbani” value came out at 0.8, the “Binding of serum 1b to linear peptides of protein M of SARS-CoV Urbani” value stood at 0.6 and the “Binding of serum 1b to looped/cyclic peptides of protein M of SARS-CoV Urbani” value was 0.6. Further, in test [1], the “Binding of serum 2 to linear peptides of protein M of SARS-CoV Urbani” value amounted to 0.5, the “Binding of serum 2 to looped/cyclic peptides of protein M of SARS-CoV Urbani” value is given as 0.6, the “Binding of serum 6 to linear peptides of protein M of SARS-CoV Urbani” value came to 0.4 and the “Binding of serum 6 to looped/cyclic peptides of protein M of SARS-CoV Urbani” value was 0.8. Moreover, in test [1], the “Binding of serum 37 to linear peptides of protein M of SARS-CoV Urbani” value is 0.4, the “Binding of serum 37 to looped/cyclic peptides of protein M of SARS-CoV Urbani” value amounted to 0.7, the “Binding of serum 62 to linear peptides of protein M of SARS-CoV Urbani” value was 0.5 and the “Binding of serum 62 to looped/cyclic peptides of protein M of SARS-CoV Urbani” value is given as 0.7. Also, in test [1], the “Binding of serum London to linear peptides of protein M of SARS-CoV Urbani” value came out at 0.3, the “Binding of serum London to looped/cyclic peptides of protein M of SARS-CoV Urbani” value is 0.3, the “Binding of serum SARS-green to linear peptides of protein M of SARS-CoV Urbani” value turned out to be 0.5 and the “Binding of serum SARS-green to looped/cyclic peptides of protein M of SARS-CoV Urbani” value is listed as 0.2. For the same sequence, in test [1], the “Binding of serum SARS-yellow to linear peptides of protein M of SARS-CoV Urbani” value is reported as 0.1 and the “Binding of serum SARS-yellow to looped/cyclic peptides of protein M of SARS-CoV Urbani” value is 0.6. Moreover, in test [2], the “Rabbit serum linear peptides” value came out at 0.2 and the “Rabbit serum looped peptides” value was 0.3. Besides, in test [3], the “Binding of Control Serum Blood-Bank to Looped peptides of the protein M of SARS-CoV Urbani” value came to 0.8, the “Binding of Control serum Blood-bank to linear peptides of the protein M of SARS-CoV Urbani” value is 0.5, the “Binding of Control serum LUMC to linear peptides of the protein M of SARS-CoV Urbani” value is recorded as 0.5 and the “Binding of Control serum LUMC to looped peptides of the protein M of SARS-CoV Urbani” value was determined as 0.7.
Regarding VVHGYFTEVYYQLES, in test [1], the “Binding of serum 1a to linear peptides of protein X1 of SARS-CoV Urbani” value came out at 0.8, the “Binding of serum 1a to looped/cyclic peptides of protein X1 of SARS-CoV Urbani” value came to 0.6, the “Binding of serum 1b to linear peptides of protein X1 of SARS-CoV Urbani” value came to 0.7 and the “Binding of serum 1b to looped/cyclic peptides of protein X1 of SARS-CoV Urbani” value was found to be 0.4. In addition, in test [1], the “Binding of serum 2 to linear peptides of protein X1 of SARS-CoV Urbani” value came out at 0.4, the “Binding of serum 2 to looped/cyclic peptides of protein X1 of SARS-CoV Urbani” value was 0.4, the “Binding of serum 6 to linear peptides of protein X1 of SARS-CoV Urbani” value was 0.3 and the “Binding of serum 6 to looped/cyclic peptides of protein X1 of SARS-CoV Urbani” value is 0.3. In test [1], the “Binding of serum 37 to linear peptides of protein X1 of SARS-CoV Urbani” value came to 0.5, the “Binding of serum 37 to looped/cyclic peptides of protein X1 of SARS-CoV Urbani” value turned out to be 0.6, the “Binding of serum 62 to linear peptides of protein X1 of SARS-CoV Urbani” value is given as 0.4 and the “Binding of serum 62 to looped/cyclic peptides of protein X1 of SARS-CoV Urbani” value is listed as 0.5. In test [1], the “Binding of serum London to linear peptides of protein X1 of SARS-CoV Urbani” value is 0.2, the “Binding of serum London to looped/cyclic peptides of protein X1 of SARS-CoV Urbani” value was determined as 0.2, the “Binding of serum SARS-green to linear peptides of protein X1 of SARS-CoV Urbani” value is listed as 0.2 and the “Binding of serum SARS-green to looped/cyclic peptides of protein X1 of SARS-CoV Urbani” value turned out to be 0.2. In addition, in test [1], the “Binding of serum SARS-yellow to linear peptides of protein X1 of SARS-CoV Urbani” value came to 0.3 and the “Binding of serum SARS-yellow to looped/cyclic peptides of protein X1 of SARS-CoV Urbani” value was found to be 0.4. Besides, in test [2], the “Binding of a rabbit serum to linear peptides” value was 0.1 and the “Binding of a rabbit serum to looped peptides” value stood at 0.7. Besides, in test [3], the “Binding of Control Serum Blood-Bank to Looped peptides” value came to 0.4, the “Binding of Control serum Blood-bank to linear peptides” value stood at 0.4, the “Binding of Control serum LUMC to linear peptides” value was found to be 0.8 and the “Binding of Control serum LUMC to looped peptides” value is reported as 0.6.
